The target of this experiment is T1, NaV1.7 (Rattus norvegicus, UniProt O08562).
T1 construct: gene Scn9a; rat cDNA NaV1.7 (GenBank No. U79568), transiently expressed in HEK-293 cells
Kind of experiment: whole-cell patch-clamp, INa block in transfected HEK-293 cells. Format: cell-based. Background: The patch-clamp technique gives a direct electrical read-out from membranes.

The record followed here is article PMC10216335, “Voltage-Gated Sodium Channel NaV1.7 Inhibitors with Potent Anticancer Activities in Medullary Thyroid Cancer Cells” (Cancers, 2023).

Counter-ions that a name gives are not always drawn.

As usually defined, the IC50 is the midpoint of a concentration-inhibition curve. Read a high IC50 as lower potency.

T1 sequence (O08562 whole entry): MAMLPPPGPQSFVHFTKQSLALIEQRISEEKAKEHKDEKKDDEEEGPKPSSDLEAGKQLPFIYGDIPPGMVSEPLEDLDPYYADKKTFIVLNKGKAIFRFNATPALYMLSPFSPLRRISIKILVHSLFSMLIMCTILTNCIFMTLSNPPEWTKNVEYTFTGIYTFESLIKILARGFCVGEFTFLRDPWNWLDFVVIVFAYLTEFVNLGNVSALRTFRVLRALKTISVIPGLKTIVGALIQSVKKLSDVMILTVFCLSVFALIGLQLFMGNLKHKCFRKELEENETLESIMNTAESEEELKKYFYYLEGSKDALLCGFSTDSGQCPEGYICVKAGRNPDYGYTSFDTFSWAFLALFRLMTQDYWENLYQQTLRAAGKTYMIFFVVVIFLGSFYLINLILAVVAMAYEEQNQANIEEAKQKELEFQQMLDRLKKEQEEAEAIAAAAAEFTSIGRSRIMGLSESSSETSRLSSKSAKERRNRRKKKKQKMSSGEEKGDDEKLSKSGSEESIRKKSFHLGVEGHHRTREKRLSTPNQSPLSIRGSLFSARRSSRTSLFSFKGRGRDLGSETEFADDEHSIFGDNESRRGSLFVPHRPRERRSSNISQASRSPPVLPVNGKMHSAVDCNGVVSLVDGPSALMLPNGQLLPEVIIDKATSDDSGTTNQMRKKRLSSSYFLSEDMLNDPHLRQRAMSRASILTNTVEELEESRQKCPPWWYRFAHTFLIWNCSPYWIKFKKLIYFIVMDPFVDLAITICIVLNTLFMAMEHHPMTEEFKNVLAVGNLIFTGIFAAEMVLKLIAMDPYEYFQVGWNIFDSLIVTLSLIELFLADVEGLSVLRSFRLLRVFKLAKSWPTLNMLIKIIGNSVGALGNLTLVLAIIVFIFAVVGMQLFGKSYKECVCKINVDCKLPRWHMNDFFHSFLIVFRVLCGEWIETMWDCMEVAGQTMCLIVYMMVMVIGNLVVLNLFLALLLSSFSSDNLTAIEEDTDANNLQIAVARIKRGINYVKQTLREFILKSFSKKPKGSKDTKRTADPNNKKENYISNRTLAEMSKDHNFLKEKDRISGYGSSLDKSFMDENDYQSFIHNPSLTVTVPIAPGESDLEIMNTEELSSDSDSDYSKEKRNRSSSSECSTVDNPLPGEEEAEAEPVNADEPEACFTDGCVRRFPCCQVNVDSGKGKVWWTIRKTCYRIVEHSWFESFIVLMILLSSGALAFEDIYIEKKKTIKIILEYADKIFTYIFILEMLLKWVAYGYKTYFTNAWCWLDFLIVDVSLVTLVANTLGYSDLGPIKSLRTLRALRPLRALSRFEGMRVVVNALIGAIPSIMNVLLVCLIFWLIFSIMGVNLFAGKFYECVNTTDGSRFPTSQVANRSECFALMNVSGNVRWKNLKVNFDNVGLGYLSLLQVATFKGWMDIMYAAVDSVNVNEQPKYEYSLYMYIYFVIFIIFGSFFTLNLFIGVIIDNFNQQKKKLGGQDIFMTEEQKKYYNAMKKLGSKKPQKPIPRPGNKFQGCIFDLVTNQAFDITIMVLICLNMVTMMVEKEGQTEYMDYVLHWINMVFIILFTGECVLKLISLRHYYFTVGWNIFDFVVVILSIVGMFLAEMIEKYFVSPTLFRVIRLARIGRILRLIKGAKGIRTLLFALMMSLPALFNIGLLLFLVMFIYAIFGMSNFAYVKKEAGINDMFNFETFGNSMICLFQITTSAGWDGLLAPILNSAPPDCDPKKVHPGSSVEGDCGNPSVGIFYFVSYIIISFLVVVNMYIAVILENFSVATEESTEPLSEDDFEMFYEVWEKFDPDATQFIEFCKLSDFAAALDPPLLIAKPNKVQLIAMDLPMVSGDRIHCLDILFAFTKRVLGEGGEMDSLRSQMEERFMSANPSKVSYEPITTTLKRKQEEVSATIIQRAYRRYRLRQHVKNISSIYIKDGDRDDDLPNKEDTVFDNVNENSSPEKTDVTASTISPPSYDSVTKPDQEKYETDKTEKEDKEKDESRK

Consider `c1ccc(C(CCCNCCCN2CCCCC2)c2ccccc2)cc1` [SV188, 4,4-Diphenylbutyl [3-(piperidin-1-yl)propyl]amine Hydrochloride], for which the IC50 is 3.6 µM.
